Here are results for three molecules from PMC10671074, “Tumor Regression upon Intratumoral and Subcutaneous Dosing of the STING Agonist ALG-031048 in Mouse Efficacy Models” (International Journal of Molecular Sciences, 2023).

A short description of series [1]: Plasma stability, mouse. The series is classed as in vitro ADME. As to conditions: 37 °C, read-out: Plasma t½, Mouse. On the procedure: (§1) The plasma stability assay was carried out on 96-well microtiter plates. The test compounds at 5 µM and the reference compound (propantheline) at 1 µM final concentration were incubated separately at 37 °C with mouse or human plasma for 0, 30, 60, and 240 min. At the end of each incubation time point, 300 μL of the quenching solution (50% acetonitrile, 50% methanol, and 0.05% formic acid) containing the internal standard was added to each well. The incubation plates were sealed, vortexed, and centrifuged at 4 °C for 15 min at 4000 rpm. The supernatant was transferred to fresh plates for LC/MS/MS analysis of the test compounds. The peak area ratios of each test compound over the internal standard were plotted against incubation time, and the t½ was calculated from the curve assuming first-order kinetics.

The nature of series [2]: Plasma stability, human. The series is classed as in vitro ADME. As to conditions: 37 °C, read-out: Plasma t½, Human. The method, then:
as §1

For series [3], the system named is primary human immature dendritic cells. As to the kind of experiment: Activation of primary human immature dendritic cells (CD83/CD86 flow cytometry). Format: cell-based. The note with it: for Surface expression of CD86 and CD83 (in words): iDCs and, to a lesser degree, monocytes, 24 and 72 h; for pEC50: iDCs, 72 h after stimulation. The source says:
Frozen human PBMCs (100 × 10^6 cells) were obtained from Stem Cell Technologies (Kent, WA, USA). Monocytes were purified from PBMCs using a CD14^+ pan-monocyte-negative isolation kit and an LS column (Miltenyi Biotec, Bergisch Gladbach, Germany). Magnetically labeled non-target cells were depleted by retaining them within a MACS column in the magnetic field of a MACS Separator, while highly purified unlabeled CD1 D16^− cells were collected and used to generate dendritic cells. To obtain immature monocyte-derived dendritic cells (iMDDCs), enriched monocytes were cultured in Mo-DC differentiation medium (Miltenyi Biotec) supplemented with human IL-4 (250 IU/mL, Miltenyi Biotec) and human GM-CSF (800 IU/mL, Miltenyi Biotec) at 37 °C in a T-150 flask in a 5% CO2 humidified incubator for 5 days; fresh media was replenished every 2–3 days.
[…] An aliquot of iMDDCs was also cultured in maturation media for 24–48 h and used as a control containing RPMI 1640, 10% FBS, 2 mM L-glutamine, and human TNF-α (6000 IU/mL, Miltenyi Biotec). The supernatant from the plate was frozen to assess cytokine production, and cells were analyzed via flow cytometry.
Cells were incubated with phosphate-buffered saline (PBS) containing 2% FBS and 2 mM of EDTA (FACS buffer) supplemented with 2 mg/mL of normal human IgG on ice for 15 min to block Fc receptors. The cell suspension was then incubated with a predetermined optimal concentration of the appropriate fluorescent dye-labeled monoclonal antibodies (mAbs) against human cell surface markers on ice for 30 min. The fluorescent dye-labeled mAbs against human cell surface molecules included anti-CD209, anti-CD14, anti-CD11c, anti-CD40, anti-HLA-DR, anti-CD86, and anti-CD83 (BD Biosciences, Franklin Lakes, NJ, USA or BioLegend, San Diego, CA, USA). In addition, a fixable live/dead stain (Thermo Fisher Scientific) at a dilution of 1:1000 was added to exclude dead cells. After several washes with FACS buffer, cells were resuspended in FACS buffer and analyzed on an Attune Nxt flow cytometer (Thermo Fisher Scientific) with FlowJo v10 software (BD Biosciences). An aliquot of the cells to be analyzed served as controls by using “fluorescent minus-one” to establish gates and determine the frequency of positively stained cells. Ultra-comp beads (Thermo Fisher Scientific) were used as single-stained controls to set up compensation on the flow cytometer.
(Flow cytometry measures light scatter and fluorescence of single cells or particles in a stream.)

Series [4] in a line: Liver microsomal stability, mouse. Format: in vitro ADME. As to conditions: pH 7.4, 0.5 mg/mL mouse liver microsomes, 37 °C, read-out: Liver Microsome t½, Mouse. The method, then:
(§2) The liver microsomal stability assay was carried out in 96-well microtiter plates. The test compounds at 5 µM and the reference compound (verapamil) at 1 µM final concentration were incubated separately at 37 °C with 0.5 mg/mL liver microsomes, with or without 1 mM NADPH in 100 mM potassium phosphate buffer, pH 7.4 with 3.3 mM MgCl2. […] At each of the time points (0, 15, 30, and 60 min), the enzymatic reaction was terminated with the addition of 150 μL of quenching solution (100% acetonitrile, 0.1% formic acid, and the internal standard), and subsequently the mixtures were vortexed vigorously for 20 min and centrifuged at 4000 rpm at 10 °C. The supernatants (80 µL) were transferred to a clean 96-well plate and analyzed via LC/MS/MS. The peak area ratios of each test compound over the internal standard were plotted against incubation time, and the t½ was calculated from the curve assuming first-order kinetics.
For orientation: Microsomes from liver hold many membrane-bound enzymes, among them those of drug oxidation.

The nature of series [5]: Liver microsomal stability, human. Format: in vitro ADME. As to conditions: pH 7.4, 0.5 mg/mL human liver microsomes, 37 °C, read-out: Liver Microsome t½, Human. The method, then: as §2
The subject of series [6] is primary human monocytes. In words: Activation of primary human monocytes (CD83/CD86 flow cytometry). The series is classed as cell-based. The note with it: Monocyte, 24 h after stimulation. The source says:
Frozen human PBMCs (100 × 10^6 cells) were obtained from Stem Cell Technologies (Kent, WA, USA). Monocytes were purified from PBMCs using a CD14^+ pan-monocyte-negative isolation kit and an LS column (Miltenyi Biotec, Bergisch Gladbach, Germany). Magnetically labeled non-target cells were depleted by retaining them within a MACS column in the magnetic field of a MACS Separator, while highly purified unlabeled CD1 D16^− cells were collected and used to generate dendritic cells.
The cell suspension was then incubated with a predetermined optimal concentration of the appropriate fluorescent dye-labeled monoclonal antibodies (mAbs) against human cell surface markers on ice for 30 min. The fluorescent dye-labeled mAbs against human cell surface molecules included anti-CD209, anti-CD14, anti-CD11c, anti-CD40, anti-HLA-DR, anti-CD86, and anti-CD83 (BD Biosciences, Franklin Lakes, NJ, USA or BioLegend, San Diego, CA, USA). In addition, a fixable live/dead stain (Thermo Fisher Scientific) at a dilution of 1:1000 was added to exclude dead cells. After several washes with FACS buffer, cells were resuspended in FACS buffer and analyzed on an Attune Nxt flow cytometer (Thermo Fisher Scientific) with FlowJo v10 software (BD Biosciences). An aliquot of the cells to be analyzed served as controls by using “fluorescent minus-one” to establish gates and determine the frequency of positively stained cells. Ultra-comp beads (Thermo Fisher Scientific) were used as single-stained controls to set up compensation on the flow cytometer.

The conditions of series [7]: early clinical trial, patients; cited from earlier work.
Series [8] deals with subcutaneous CT26 tumors. In words: CT26 mouse colon carcinoma model. As to conditions: Table 2 study, 3 × q3d; for Median Time to Endpoint: vehicle 19.0.
The subject of series [9] is MC38-hPD-L1 tumors. In words: MC38-hPD-L1 mouse colon carcinoma model. The series is classed as in vivo. The note with it: 5 mg/kg IP, BIW (4×). The source says: Female C57/BL6 mice (Shanghai Lingchang Biotechnology Co., Ltd., Shanghai, China) were 5 to 8 weeks old with a body weight > 16 g at the time of inoculation. Animals were housed and fed as described above.
After inoculation with tumor cells, the animals were checked daily for morbidity and mortality. During routine monitoring, the animals were checked for any effects of tumor growth or test articles on behavior such as mobility, food and water consumption, body weight gain/loss (body weights were measured twice per week after randomization), eye/hair matting, and any other abnormalities. Tumor volumes were measured and calculated as described above.
Each group consisted of 10 animals. The control group was administered 5 mg/kg isotype control antibody in a volume of 10 μL/g of IP, BIW for 2.5 weeks, 5 doses total. The atezolizumab-treated group was administered 5 mg/kg in a volume of 10 μL/g of IP, BIW for 2.5 weeks, 5 doses total. […] Dosing started when average tumor volumes were 70 mm^3.

pEC50: −log10 of the molar value. Read-outs that look alike come from different tables or passages of the source. Marks after values point to notes of the source that are not given here. Where only a bound is given, the exact number is not on record here.

Consider `Nc1nc2c(ncn2[C@@H]2O[C@@H]3COP(=O)(O)O[C@H]4[C@@H](O)[C@H](n5cnc6c(N)ncnc65)O[C@@H]4COP(=O)(O)O[C@@H]2[C@@H]3O)c(=O)[nH]1` [2′3′ cGAMP, 2′3′ cyclic guanosine monophosphate–adenosine monophosphate], for which the half-life at 5 µM in series [1] came to 7.2 min; in [2], 12.8 min. The “Surface expression of CD86 and CD83 (in words)” value in series [3] was “upregulated the surface expression of CD86 and CD83”. For the same molecule, the pEC50 is 5.52 in series [3] (read-out: EC50 CD83, Immature Dendritic Cells) and 5.15 in series [3] (read-out: EC50 CD86, Immature Dendritic Cells).

In the case of `Nc1ncnc2c1ncn2[C@@H]1O[C@@H]2CO[P@@](=O)(S)O[C@@H]3[C@H](O)[C@@H](CO[P@@](=O)(S)O[C@H]2[C@H]1O)O[C@H]3n1cnc2c(N)ncnc21` [ADU-S100], the half-life at 5 µM is above 60 min in [1], above 60 min in series [2], above 480 min in [4] and above 480 min in series [5]. The pEC50 in [3] (Homo sapiens, Dendritic cell, read-out: EC50 CD83, Immature Dendritic Cells) was 5.10; in [3] (Homo sapiens, Dendritic cell, read-out: EC50 CD86, Immature Dendritic Cells), 4.60; in [6] (read-out: EC50 CD83, Monocytes), 5.41; in [6] (read-out: EC50 CD86, Monocytes), 6.31. Besides, the “Surface expression of CD86 and CD83 (in words)” value in series [3] is “upregulated the surface expression of CD86 and CD83”. The “terminal t½” value in series [7] was 10 to 23 min. The “Animals with tumor regression by end of study” value in [8] (25 μg IT, Day 40) was 1 of 10. For the same molecule, the “Delayed Response (TV > 10 and <2000 mm^3)” value in series [8] (25 μg IT, n = 10) is reported as 40% ^a; in series [8] (100 μg IT, n = 10), 10% ^b. Besides, in series [8] (25 μg IT, n = 10), the “Treatment Failure (TV > 2000 mm^3)” value is 50% ^a. Further, in series [8] (25 μg IT, n = 10, BALB/c, end of study Day 40), the “Complete Response (TV < 10 mm^3)” value was 10% ^a. Further, the “Median Time to Endpoint” value was found to be 36.5 days in series [8] (25 μg IT, n = 10) and 40.0 days in series [8] (100 μg IT, n = 10).

As to “Atezolizumab: anti-human PD-L1 antibody atezolizumab biosimilar provided by Crownbio [reference compound]”, the “Tumor Reduction vs. Group 1 (vehicle)” value in series [9] (Day 11) is on record as 53.7%. Besides, the “TV on Day 11 (Median)” value in [9] (n = 10, vehicle 2268) was 1050 mm^3.

As usually defined, the pEC50 is the EC50 on a negative log10 scale, so that one unit is a factor of ten.
